Three compounds from the NIST ThermoML archive (doi:10.1016/j.jct.2006.07.023) can be followed below.

“And” between values parts separate entries of the source, which are not always exact repeats. Identical values can stand only once. ± gives the expanded uncertainty stated by the source.

Data set [1] in a line: Molar enthalpy of transition or fusion. The settings on record: DSC.
The conditions of data set [2]: DTA.

Consider `CCCC(=O)[O-].CCCC(=O)[O-].[Pb+2]` [lead(2+) dibutanoate], for which the “Molar enthalpy of transition or fusion” value was 3.51 kcal/mol and 3.49 kcal/mol in data set [1] (Crystal); 1.84 ± 0.191 kcal/mol in data set [1] (Metastable crystal). Moreover, the Triple point temperature in data set [2] (Crystal) was 346.5 ± 0.7 K and 346.3 ± 0.9 K; in data set [2] (Metastable crystal) it was 322.8 ± 1.1 K. Also, the Glass transition temperature in data set [2] was determined as 1.8 ± 3 °C.
As to `CCC(=O)[O-].CCC(=O)[O-].[Pb+2]` [lead(2+) dipropanoate], in data set [1] (Crystal), the “Molar enthalpy of transition or fusion” value came out at 3.13 ± 0.0956 kcal/mol. In data set [2] (Crystal), the Triple point temperature is 398.1 ± 1.1 K. In data set [2], the Glass transition temperature is 25 ± 3 °C.
As to `CC(=O)[O-].CC(=O)[O-].[Pb+2]` [lead(2+) acetate], in data set [1] (Crystal), the “Molar enthalpy of transition or fusion” value was 3.78 ± 0.0956 kcal/mol. Further, in data set [2] (Crystal), the Triple point temperature is 452.3 ± 1.6 K. Besides, the Glass transition temperature in data set [2] was 41.2 ± 3 °C.
